Test results: patent US8242151B2, “Tricyclic compounds” (Kyowa Hakko Kirin Co., Ltd., priority 2007, dated 2012)

Key:
[1] = molecular target: T1, GAL4-PPARγ chimeric nuclear receptor (human PPARγ ligand binding region) (Homo sapiens, UniProt P37231); experiment: Transactivation assay of PPARγ by transient gene transfer (GAL4-PPARγ luciferase reporter); type: cell-based; details: HEK293EBNA cells, 24 hr; concentration showing 50% of efficacy; activity relative to pioglitazone 10 μmol/L = 100%
T1 construct: expressed in transfected cells; host or cells: HEK293EBNA cells
T1 sequence (P37231 174-475 isoform P37231-2): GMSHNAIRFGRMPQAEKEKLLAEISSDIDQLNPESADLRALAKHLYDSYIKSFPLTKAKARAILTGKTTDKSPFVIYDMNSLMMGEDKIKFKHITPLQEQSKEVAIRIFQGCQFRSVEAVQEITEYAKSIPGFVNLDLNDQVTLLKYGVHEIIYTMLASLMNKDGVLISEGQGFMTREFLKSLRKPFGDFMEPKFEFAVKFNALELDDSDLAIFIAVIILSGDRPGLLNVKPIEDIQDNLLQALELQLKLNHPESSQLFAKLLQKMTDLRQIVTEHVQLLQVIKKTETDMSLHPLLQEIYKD
Description: The agonist activity of compound (I) to PPARγ was determined by a transactivation assay method using a chimeric nuclear receptor of a DNA binding region of a yeast transcription factor GAL4 and a PPARγ ligand binding region. Specifically, the PPARγ agonist activity of compound (I) was evaluated by the following method based on the method of Lehmann et al. (J Biol. Chem., 1995, vol. 270, page 12953).
HEK293EBNA cells cultured in Dulbecco's Modified Eagle medium (Invitrogen) containing 10 v/v % fetal calf serum (Invitrogen) were used. 30 mL of the above-mentioned cells (density: 1×10^5 cells/mL) were inoculated in a […] culture dish (Iwaki Glass), and cultured overnight. Using SuperFect Transfection Reagent (QIAGEN), a plasmid expressing a GAL4-PPARγ chimeric nuclear receptor fusing 174-475 amino acids, which are human PPARγ ligand binding region, and 1-147 amino acids, which are GAL4 DNA binding region, and a reporter plasmid expressing a GAL4 responsive luciferase were transiently introduced into the cells at a proportion of 4:1. After 5 hr from gene introduction, the cells were detached from the culture dish, and the detached cells (density: 2×10^4 cells/mL) were inoculated by 100 μL in each well of a 96 well white plate (SUMITOMO BAKELITE), and cultured overnight. The medium was removed, compound (I) diluted in various concentrations with serum-free Dulbecco's Modified Eagle medium was added by 100 μL, and the mixture was reacted under a 5% carbon dioxide gas stream (5% CO2) at 37° C. for 24 hr. On the other hand, as a positive control, 10 μmol/L of pioglitazone (100 μL) was added, and the mixture was reacted under a 5% carbon dioxide gas stream (5% CO2) at 37° C. for 24 hr. As a substrate of luciferase, 100 μL of Steady-Glo (Promega) was added to each well and the mixture was thoroughly stirred. Immediately thereafter, the chemical luminescence due to luciferase was measured using TopCount NTX (Packard).
The agonist activity (activity rate (%)) of compound (I) to PPARγ was calculated according to the following formula, as a relative activity when the agonist activity on addition of pioglitazone (10 μmol/L) was 100%.

[2] = tested on: spontaneously hypertensive rats (SHR); experiment: Antihypertensive action by telemetry method; type: in vivo, rat; details: oral once a day for 4 days, 24 hr averages
Excerpt: A telemetry transmitter was indwelled in the abdominal artery of spontaneously hypertensive rats (SHR), and the blood pressure and heart rate were monitored. The rats were acclimated and reared for 4 weeks or more, and only the rats with hypertension were used for the test. Before drug administration, the rats were grouped such that the blood pressure and heart rate of each rat would be of the same levels between the groups. A solvent (0.5% methylcellulose solution) and a test compound were repeatedly administered orally once a day for 4 days. The average systolic blood pressure for 24 hr, average diastolic blood pressure for 24 hr and average heart rate for 24 hr were calculated on each administration day.

[3] = tested on: spontaneously hypertensive rats (SHR); experiment: Antihypertensive action by tail cuff method; type: in vivo, rat; details: oral once a day for 7 days, about 4 to 9 hr after final administration
Description: 18- to 22-week-old spontaneously hypertensive rats (SHR) were used.
Before drug administration, the body weight, blood pressure and heart rate of each rat were measured, and the rats were grouped such that these values are almost the same between groups. A solvent (0.5% methylcellulose solution) and a test compound were repeatedly administered orally once a day for 7 days. At about 4 to 9 hr after the final administration, systolic blood pressure and heart rate were non-invasively measured according to the following.
The rats were placed in a cylindrical restrainer, heated to 37° C., and blood pressure and heart rate were measured under resting state using a Tail Cuff Method. For the measurement, a non-invasive blood pressure measurement apparatus (PS-600, Riken Kaihatsu, Tokyo) was used. The blood pressure and heart rate of each rat was measured 5 times, and the average was taken as the value of each rat.

| EC50 [1] | Compound | antihypertensive action (blood pressure, telemetry) [2] | antihypertensive action (systolic blood pressure, tail cuff) [3] |
| --- | --- | --- | --- |
| 1840 nM | CCc1nc2c(Cl)ccnc2n1Cc1ccc2c(c1)COc1ccccc1/C2=C(/C)c1noc(=O)[nH]1 [Compound 137, (Z)-8-(7-chloro-2-ethyl-3H-imidazo[4,5-b]pyridin-3-yl)methyl-11-[1-(5-oxo-4,5-dihydro-1,2,4-oxadiazol-3-yl)ethylidene]-6,11-dihydrodibenzo[b,e]oxepine] | antihypertensive action | antihypertensive action |
| 4560 nM | CCc1nc2c(C)cc(C)nc2n1Cc1ccc2c(c1)CCc1ccccc1N2Cc1nnn[nH]1 [Compound S13, 2-(2-ethyl-5,7-dimethyl-3H-imidazo[4,5-b]pyridin-3-yl)methyl-5-(1H-tetrazol-5-yl)methyl-10,11-dihydro-5H-dibenzo[b,f]azepine] | antihypertensive action | antihypertensive action |
| 326 nM | CCc1nc2c(C)cc(C)nc2n1Cc1ccc2c(c1)CCc1ccccc1/C2=C\c1noc(=O)[nH]1 [Compound 29, (E)-2-(2-ethyl-5,7-dimethyl-3H-imidazo[4,5-b]pyridin-3-yl)methyl-5-(5-oxo-4,5-dihydro-1,2,4-oxadiazol-3-yl)methylene-10,11-dihydro-5H-dibenzo[a,d]cycloheptene] | antihypertensive action | antihypertensive action |
| 336 nM | CCOc1nc2c(Cl)cccc2n1Cc1ccc2c(c1)COc1ccccc1/C2=C(/C)c1noc(=O)[nH]1 [Compound 146, (Z)-8-(4-chloro-2-ethoxybenzimidazol-1-yl)methyl-11-[1-(5-oxo-4,5-dihydro-1,2,4-oxadiazol-3-yl)ethylidene]-6,11-dihydrodibenzo[b,e]oxepine] | antihypertensive action | – |
| 1020 nM | CCc1nc2c(C)ccnc2n1Cc1ccc2c(c1)CCc1ccccc1/C2=C(/C)c1noc(=O)[nH]1 [Compound 42, (E)-2-(2-ethyl-7-methyl-3H-imidazo[4,5-b]pyridin-3-yl)methyl-5-[1-(5-oxo-4,5-dihydro-1,2,4-oxadiazol-3-yl)ethylidene]-10,11-dihydro-5H-dibenzo[a,d]cycloheptene] | antihypertensive action | antihypertensive action |
| 323 nM | CCOc1nc2c(C)cc(C)nc2n1Cc1ccc2c(c1)CCc1ccccc1/C2=C(/C)c1noc(=O)[nH]1 [Compound 86, (E)-2-(2-ethoxy-5,7-dimethyl-3H-imidazo[4,5-b]pyridin-3-yl)methyl-5-[1-(5-oxo-4,5-dihydro-1,2,4-oxadiazol-3-yl)ethylidene]-10,11-dihydro-5H-dibenzo[a,d]cycloheptene] | antihypertensive action | – |
| 348 nM | CCc1nc2c(C)cc(C)nc2n1Cc1ccc2c(c1)COc1ccccc1/C2=C\c1noc(=O)[nH]1 [Compound 118, (Z)-8-(2-ethyl-5,7-dimethyl-3H-imidazo[4,5-b]pyridin-3-yl)methyl-11-(5-oxo-4,5-dihydro-1,2,4-oxadiazol-3-yl)methylene-6,11-dihydrodibenzo[b,e]oxepine] | antihypertensive action | – |
| 235 nM | Cc1cc(C)c2nc(C3CC3)n(Cc3ccc4c(c3)CCc3ccccc3N4C(C)c3nnn[nH]3)c2n1 (stereo not shown) [Compound 71, 2-(2-cyclopropyl-5,7-dimethyl-3H-imidazo[4,5-b]pyridin-3-yl)methyl-5-[1-(1H-tetrazol-5-yl)ethyl]-10,11-dihydro-5H-dibenzo[b,f]azepine] | antihypertensive action | – |
| 550 nM | CCOc1nc2c(Cl)ccnc2n1Cc1ccc2c(c1)COc1ccccc1/C2=C(/C)c1noc(=O)[nH]1 [Compound 138, (Z)-8-(7-chloro-2-ethoxy-3H-imidazo[4,5-b]pyridin-3-yl)methyl-11-[1-(5-oxo-4,5-dihydro-1,2,4-oxadiazol-3-yl)ethylidene]-6,11-dihydrodibenzo[b,e]oxepine] | antihypertensive action | – |
| 1020 nM | C/C(=C1/c2ccccc2CCc2cc(Cn3c(C4CC4)nc4c(C)ccnc43)ccc21)c1nnn[nH]1 [Compound 100, (E)-2-(2-cyclopropyl-7-methyl-3H-imidazo[4,5-b]pyridin-3-yl)methyl-5-[1-(1H-tetrazol-5-yl)ethylidene]-10,11-dihydro-5H-dibenzo[a,d]cycloheptene] | antihypertensive action | – |
| 611 nM | CCc1nc2c(Cl)cc(C)nc2n1Cc1ccc2c(c1)COc1ccccc1/C2=C(/C)c1noc(=O)[nH]1 [Compound 129, (Z)-8-(7-chloro-2-ethyl-5-methyl-3H-imidazo[4,5-b]pyridin-3-yl)methyl-11-[1-(5-oxo-4,5-dihydro-1,2,4-oxadiazol-3-yl)ethylidene]-6,11-dihydrodibenzo[b,e]oxepine] | antihypertensive action | – |
| 1000 nM | CCc1nc2c(C)cc(C)nc2n1Cc1ccc2c(c1)CCc1ccccc1N2C(C)c1nnn[nH]1 (stereo not shown) [Compound 22, 2-(2-ethyl-5,7-dimethyl-3H-imidazo[4,5-b]pyridin-3-yl)methyl-5-[1-(1H-tetrazol-5-yl)ethyl]-10,11-dihydro-5H-dibenzo[b,f]azepine] | antihypertensive action | – |
| – | CCc1nc2c(C)ccnc2n1Cc1ccc2c(c1)CCc1ccccc1N2C(C)c1nnn[nH]1 (stereo not shown) [Compound 26, 2-(2-ethyl-7-methyl-3H-imidazo[4,5-b]pyridin-3-yl)methyl-5-[1-(1H-tetrazol-5-yl)ethyl]-10,11-dihydro-5H-dibenzo[b,f]azepine] | – | antihypertensive action |
| 320 nM | CCOc1nc2c(C)cc(C)nc2n1Cc1ccc2c(c1)COc1ccccc1/C2=C\c1noc(=O)[nH]1 [Compound 124, (Z)-8-(2-ethoxy-5,7-dimethyl-3H-imidazo[4,5-b]pyridin-3-yl)methyl-11-(5-oxo-4,5-dihydro-1,2,4-oxadiazol-3-yl)methylene-6,11-dihydrodibenzo[b,e]oxepine] | antihypertensive action | – |
| – | C/C(=C1\c2ccc(Cn3c(C4CC4)nc4c(Cl)ccnc43)cc2COc2ccccc21)c1noc(=O)[nH]1 [Compound 139, (Z)-8-(7-chloro-2-cyclopropyl-3H-imidazo[4,5-b]pyridin-3-yl)methyl-11-[1-(5-oxo-4,5-dihydro-1,2,4-oxadiazol-3-yl)ethylidene]-6,11-dihydrodibenzo[b,e]oxepine] | – | antihypertensive action |
| 305 nM | CCc1nc2c(C)cc(C)nc2n1Cc1ccc2c(c1)CCc1ccccc1/C2=C\c1nnn[nH]1 [Compound S16, (E)-2-(2-ethyl-5,7-dimethyl-3H-imidazo[4,5-b]pyridin-3-yl)methyl-5-(1H-tetrazol-5-yl)methylene-10,11-dihydro-5H-dibenzo[a,d]cycloheptene] | antihypertensive action | – |
